The term IC50 denotes the concentration that inhibits the measured activity by half.

Among the data in patent US8906911B2, “Chemokine receptor antagonists” (AbbVie Inc., priority 2012, dated 2014) are Kb and IC50 values, retold here.

Where two headings read alike, the source gives them in different places. Where only a bound is given, the exact number is not on record here.

The target of test [1] is rat CCR2 (Rattus norvegicus (Rat), UniProt O55193). As to the kind of experiment: Inhibition of native agonist (rat MCP-1)-induced intracellular calcium release, calcium flux assay in CHO cells expressing rat CCR2 and Gα16. As to conditions: read-out: rCCR2 Kb. Format: cell-based. An excerpt:
(§1) CHO cells expressing human CCR2B were generated as follows. cDNA for human CCR2B (cloned from human blood) was cloned into plasmid pcDNA3.1 (from Invitrogen). The resulting plasmids were separately transfected into CHO cells expressing human Gα16 (from Molecular Devices). […] CHO cells expressing rat CCR2 were generated as follows. cDNA for rat CCR2 (cloned from rat macrophage) was cloned into plasmid pEF-flag (from Chinese Academy of Science). The resulting plasmids were transfected into CHO cells expressing human Gα16 (from […]).
(§2) Inhibition of Native Agonist-Induced Intracellular Calcium Release in Cells Expressing hCCR2B or rCCR2
(§3) Calcium flux assays were performed in CHO cells expressing human CCR2B and Gα16 coupling protein, or rat CCR2 and Gα16 coupling protein. All compounds were dissolved in DMSO and assays run at a final DMSO concentration of 0.25% (v/v). Human MCP-1 was purchased from PeproTech and used at a final assay concentration of 2 nM, while rat MCP-1 was purchased from R&D and used at a final assay concentration of 4 nM. Assays with cells expressing human CCR2B were performed with human MCP-1, while assays with cells expressing rat CCR2 were performed with rat MCP-1.
(§4) Briefly, cells were cultured overnight in a microtiter plate at 8000 per well. The next day, the resultant adherent cells were incubated in assay buffer (20 mM HEPES, pH 7.4, 0.1% bovine serum albumin, and 2.5 mM probenocid in Hank's Buffered Saline Solution) containing Calcium 4 dye (Molecular Probes) at 37° C. for 60 minutes. Calcium flux assays were performed on a FLIPR^Tetra instrument (Molecular Devices) by adding compound to the cells followed by addition of native agonist and measuring the change in fluorescence as a function of time. Maximal and minimal values for fluorescence were determined using native agonist (2 nM MCP-1) for human or rat CCR2, or buffer addition, respectively. Fluorescence values were used to calculate the percent inhibition at a given compound concentration and the data fit to a sigmoidal curve in a semi-log plot to determine IC50 values. The Kb value is calculated as Kb=IC50/(1+[agonist]/EC50), where [agonist] is the concentration of agonist used and EC50 is the agonist potency determined in the previous experiments. Mean Kb values and IC50 of the compounds assayed are reported in Table 2 and Table 3 respectively.

For test [2], the target named is human CCR2B (Homo sapiens (Human), UniProt P41597). As to the kind of experiment: Inhibition of native agonist (human MCP-1)-induced intracellular calcium release, calcium flux assay in CHO cells expressing human CCR2B and Gα16. Format: cell-based. As to conditions: for IC50: read-out: hCCR2B IC50; for Kb: read-out: hCCR2B Kb.
Excerpt: as §1, §2, §3, §4

Sequence of human CCR2B (P41597 other isoform, or with tags, fused parts or gaps): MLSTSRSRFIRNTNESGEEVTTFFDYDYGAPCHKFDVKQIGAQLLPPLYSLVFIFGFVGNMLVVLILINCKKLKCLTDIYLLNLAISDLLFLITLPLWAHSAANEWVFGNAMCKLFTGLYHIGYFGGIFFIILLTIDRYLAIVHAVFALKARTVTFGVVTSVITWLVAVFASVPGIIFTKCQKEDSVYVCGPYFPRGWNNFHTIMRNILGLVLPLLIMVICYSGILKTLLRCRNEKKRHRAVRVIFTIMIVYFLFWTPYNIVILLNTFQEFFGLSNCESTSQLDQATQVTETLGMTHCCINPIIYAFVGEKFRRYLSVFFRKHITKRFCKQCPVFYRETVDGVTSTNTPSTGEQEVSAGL
Sequence of rat CCR2 (O55193 whole entry): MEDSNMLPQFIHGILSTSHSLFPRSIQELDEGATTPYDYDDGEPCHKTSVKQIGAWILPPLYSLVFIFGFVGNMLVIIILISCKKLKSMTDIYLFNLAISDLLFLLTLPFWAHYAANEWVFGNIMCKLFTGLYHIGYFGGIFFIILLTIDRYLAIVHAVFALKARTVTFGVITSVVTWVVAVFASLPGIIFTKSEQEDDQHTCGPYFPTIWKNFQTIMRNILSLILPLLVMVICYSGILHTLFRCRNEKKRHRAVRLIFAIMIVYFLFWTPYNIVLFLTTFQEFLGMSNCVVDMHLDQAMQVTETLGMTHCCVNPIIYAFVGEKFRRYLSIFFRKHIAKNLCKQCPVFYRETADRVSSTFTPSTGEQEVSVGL

For the compound `CO[C@@H]1COCC[C@@H]1N[C@@H]1C[C@H]2CCC[C@@]2(C(=O)N2C[C@@H]3C[C@H]2CN3c2nccc(C(F)(F)F)c2F)C1` [Example 21, 1,5-anhydro-2,3-dideoxy-3-{[(2R,3aR,6aR)-3a-({(1S,4S)-5-[3-fluoro-4-(trifluoromethyl)pyridin-2-yl]-2,5-diazabicyclo[2.2.1]hept-2-yl}carbonyl)octahydropentalen-2-yl]amino}-4-O-methyl-D-erythro-pentitol], the Kb is 91 nM in test [1] and 201 nM in test [2]. In addition, the IC50 in test [2] (calcium flux, human MCP-1 2 nM) amounted to 821 nM.
For `CO[C@@H]1COCC[C@@H]1N[C@@H]1C[C@H]2CCC[C@@]2(C(=O)N2C[C@H]3C[C@@H]2CN3c2cc(C(F)(F)F)ccn2)C1` [Example 3, 1,5-anhydro-2,3-dideoxy-4-O-methyl-3-{[(2R,3aR,6aR)-3a-({(1R,4R)-5-[4-(trifluoromethyl)pyridin-2-yl]-2,5-diazabicyclo[2.2.1]hept-2-yl}carbonyl)octahydropentalen-2-yl]amino}-D-erythro-pentitol], in that order: 694 nM, 614 nM and 2500 nM.
For `CO[C@@H]1COCC[C@@H]1N[C@@H]1C[C@H]2CCC[C@@]2(C(=O)N2C[C@@H]3C[C@H]2CN3c2cccc(C(F)(F)F)c2F)C1` [Example 17, 1,5-anhydro-2,3-dideoxy-3-{[(2R,3aR,6aR)-3a-({(1S,4S)-5-[2-fluoro-3-(trifluoromethyl)phenyl]-2,5-diazabicyclo[2.2.1]hept-2-yl}carbonyl)octahydropentalen-2-yl]amino}-4-O-methyl-D-erythro-pentitol], in that order: 160 nM, 316 nM and 1290 nM.
For `CO[C@@H]1COCC[C@@H]1N[C@@H]1C[C@H]2CCC[C@@]2(C(=O)N2C[C@@H]3C[C@H]2CN3c2cccc(C(F)(F)F)c2C)C1` [Example 23, 1,5-anhydro-2,3-dideoxy-4-O-methyl-3-{[(2R,3aR,6aR)-3a-({(1S,4S)-5-[2-methyl-3-(trifluoromethyl)phenyl]-2,5-diazabicyclo[2.2.1]hept-2-yl}carbonyl)octahydropentalen-2-yl]amino}-D-erythro-pentitol], in that order: 158 nM, 272 nM and 1110 nM.
As to `CO[C@@H]1COCC[C@@H]1N[C@@H]1C[C@H]2CCC[C@@]2(C(=O)N2C[C@@H]3C[C@H]2CN3c2ccc(C#N)cc2C(F)(F)F)C1` [Example 37, 1,5-anhydro-3-{[(2R,3aR,6aR)-3a-({(1S,4S)-5-[4-cyano-2-(trifluoromethyl)phenyl]-2,5-diazabicyclo[2.2.1]hept-2-yl}carbonyl)octahydropentalen-2-yl]amino}-2,3-dideoxy-4-O-methyl-D-erythro-pentitol], the figures for the Kb in test [1] and in test [2] were 248 nM and 393 nM, respectively. For the same compound, the IC50 in test [2] (calcium flux, human MCP-1 2 nM) was 1600 nM.
For `CO[C@@H]1COCC[C@H]1N[C@@H]1C[C@H]2CCC[C@@]2(C(=O)N2[C@@H]3CC[C@H]2CN(c2cc(C(F)(F)F)ccn2)C3)C1` [Example 41, 1,5-anhydro-2,3-dideoxy-4-O-methyl-3-{[(2R,3aR,6aR)-3a-({(1R,5S)-3-[4-(trifluoromethyl)pyridin-2-yl]-3,8-diazabicyclo[3.2.1]oct-8-yl}carbonyl)octahydropentalen-2-yl]amino}-D-threo-pentitol], in that order: more than 4000 nM, more than 6140 nM and 25000 nM.
In the case of `CN(C1CCOCC1)C1CC2CCCC2(C(=O)N2CCN(c3ccc(C(F)(F)F)cc3)CC2)C1` (stereo not shown) [Compound A, reference compound], the IC50 in test [2] (calcium flux, human MCP-1 2 nM) is more than 50000 nM.
With `CO[C@@H]1COCC[C@@H]1N[C@@H]1C[C@H]2CCC[C@@]2(C(=O)N2[C@@H]3CC[C@H]2CN(c2cc(C(F)(F)F)ccn2)C3)C1` [Example 8, 1,5-anhydro-2,3-dideoxy-4-O-methyl-3-{[(2R,3aR,6aR)-3a-({(1R,5S)-3-[4-(trifluoromethyl)pyridin-2-yl]-3,8-diazabicyclo[3.2.1]oct-8-yl}carbonyl)octahydropentalen-2-yl]amino}-D-erythro-pentitol], the values for the Kb in test [1] and in test [2] were more than 6940 nM and more than 3550 nM, respectively. For the same compound, the IC50 in test [2] (calcium flux, human MCP-1 2 nM) was 14400 nM.
As to `O=C(N1CCN(c2ccc(C(F)(F)F)cc2)CC1)C12CCCC1CC(N1CCC(c3ccccc3)CC1)C2` (stereo not shown) [Compound B, reference compound], in test [2] (calcium flux, human MCP-1 2 nM), the IC50 was found to be 28000 nM.
For the compound `CO[C@@H]1COCC[C@@H]1N[C@@H]1C[C@H]2CCC[C@@]2(C(=O)N2C[C@@H]3C[C@H]2CN3c2cc(C(F)(F)F)cc(C(F)(F)F)c2)C1` [Example 43, 1,5-anhydro-3-{[(2R,3aR,6aR)-3a-({(1S,4S)-5-[3,5-bis(trifluoromethyl)phenyl]-2,5-diazabicyclo[2.2.1]hept-2-yl}carbonyl)octahydropentalen-2-yl]amino}-2,3-dideoxy-4-O-methyl-D-erythro-pentitol], the Kb came out at 53 nM in test [1] and 373 nM in test [2].
In the case of `CO[C@@H]1COCC[C@@H]1N(C)[C@@H]1C[C@H]2CCC[C@@]2(C(=O)N2C[C@@H]3C[C@H]2CN3c2cc(C(F)(F)F)cc(C(F)(F)F)c2)C1` [Example 55, 1,5-anhydro-3-{[(2R,3aR,6aR)-3a-({(1S,4S)-5-[3,5-bis(trifluoromethyl)phenyl]-2,5-diazabicyclo[2.2.1]hept-2-yl}carbonyl)octahydropentalen-2-yl](methyl)amino}-2,3-dideoxy-4-O-methyl-D-erythro-pentitol], the Kb is 175 nM in test [1] and 346 nM in test [2]. In addition, the IC50 in test [2] (calcium flux, human MCP-1 2 nM) came to 1410 nM.
Turning to `CO[C@@H]1COCC[C@@H]1N[C@@H]1C[C@H]2CCC[C@@]2(C(=O)N2C[C@@H]3C[C@H]2CN3c2ccc(C(F)(F)F)cn2)C1` [Example 34, 1,5-anhydro-2,3-dideoxy-4-O-methyl-3-{[(2R,3aR,6aR)-3a-({(1S,4S)-5-[5-(trifluoromethyl)pyridin-2-yl]-2,5-diazabicyclo[2.2.1]hept-2-yl}carbonyl)octahydropentalen-2-yl]amino}-D-erythro-pentitol], the Kb in test [1] worked out at 342 nM; in test [2] it was 682 nM. In addition, the IC50 in test [2] was 2780 nM.
As for `CO[C@@H]1COCC[C@@H]1N(C)[C@@H]1C[C@H]2CCC[C@@]2(C(=O)N2C[C@@H]3C[C@H]2CN3c2cc(C#N)cc(C(F)(F)F)c2)C1` [Example 57, 1,5-anhydro-3-{[(2R,3aR,6aR)-3a-({(1S,4S)-5-[3-cyano-5-(trifluoromethyl)phenyl]-2,5-diazabicyclo[2.2.1]hept-2-yl}carbonyl)octahydropentalen-2-yl](methyl)amino}-2,3-dideoxy-4-O-methyl-D-erythro-pentitol], the Kb came out at 55 nM in test [1] and 128 nM in test [2]. For the same compound, the IC50 in test [2] (calcium flux, human MCP-1 2 nM) turned out to be 521 nM.
In the case of `CO[C@@H]1COCC[C@@H]1N[C@@H]1C[C@H]2CCC[C@@]2(C(=O)N2C[C@@H]3C[C@H]2CN3c2cc(C(F)(F)F)cnn2)C1` [Example 5, 1,5-anhydro-2,3-dideoxy-4-O-methyl-3-{[(2R,3aR,6aR)-3a-({(1S,4S)-5-[5-(trifluoromethyl)pyridazin-3-yl]-2,5-diazabicyclo[2.2.1]hept-2-yl}carbonyl)octahydropentalen-2-yl]amino}-D-erythro-pentitol], the Kb in test [1] amounted to 7 nM.
`O=C(O)c1cccc(C2CCN([C@H]3C[C@H]4CCC[C@@]4(C(=O)N4C[C@@H]5C[C@H]4CN5c4cc(C(F)(F)F)ccn4)C3)CC2)c1` [Example 9, 3-{1-[(2S,3aR,6aR)-3a-({(1S,4S)-5-[4-(trifluoromethyl)pyridin-2-yl]-2,5-diazabicyclo[2.2.1]hept-2-yl}carbonyl)octahydropentalen-2-yl]piperidin-4-yl}benzoic acid]: in test [1], the Kb was 22 nM. In addition, in test [2], the IC50 is 470 nM and the Kb was determined as 116 nM.
With `CO[C@@H]1COCC[C@@H]1N[C@@H]1C[C@H]2CCC[C@@]2(C(=O)N2C[C@@H]3C[C@H]2CN3c2cc(C(F)(F)F)cc(C)n2)C1` [Example 11, 1,5-anhydro-2,3-dideoxy-4-O-methyl-3-{[(2R,3aR,6aR)-3a-({(1S,4S)-5-[6-methyl-4-(trifluoromethyl)pyridin-2-yl]-2,5-diazabicyclo[2.2.1]hept-2-yl}carbonyl)octahydropentalen-2-yl]amino}-D-erythro-pentitol], the Kb in test [1] is 74 nM.
As to `CO[C@@H]1COCC[C@H]1N[C@@H]1C[C@H]2CCC[C@@]2(C(=O)N2C[C@@H]3C[C@H]2CN3c2cc(C(F)(F)F)cnn2)C1` (stereo in doubt) [Example 6], in test [1], the Kb was 29 nM.
